The assay addresses Envelope glycoprotein gp160 (Human immunodeficiency virus 1, UniProt Q6QLK5). Description: inhibitors of HIV fusion peptide binding, primary screen, biochemical, uHTS, fluorescence dequenching (AID 1986).

Active and inactive are the calls of the source. Cut-off read from the data, not from the text of the source: actives have a measured IC50 and inactives only a lower limit.

Sequence of Envelope glycoprotein gp160 (Q6QLK5 whole entry, the tested form may be a part): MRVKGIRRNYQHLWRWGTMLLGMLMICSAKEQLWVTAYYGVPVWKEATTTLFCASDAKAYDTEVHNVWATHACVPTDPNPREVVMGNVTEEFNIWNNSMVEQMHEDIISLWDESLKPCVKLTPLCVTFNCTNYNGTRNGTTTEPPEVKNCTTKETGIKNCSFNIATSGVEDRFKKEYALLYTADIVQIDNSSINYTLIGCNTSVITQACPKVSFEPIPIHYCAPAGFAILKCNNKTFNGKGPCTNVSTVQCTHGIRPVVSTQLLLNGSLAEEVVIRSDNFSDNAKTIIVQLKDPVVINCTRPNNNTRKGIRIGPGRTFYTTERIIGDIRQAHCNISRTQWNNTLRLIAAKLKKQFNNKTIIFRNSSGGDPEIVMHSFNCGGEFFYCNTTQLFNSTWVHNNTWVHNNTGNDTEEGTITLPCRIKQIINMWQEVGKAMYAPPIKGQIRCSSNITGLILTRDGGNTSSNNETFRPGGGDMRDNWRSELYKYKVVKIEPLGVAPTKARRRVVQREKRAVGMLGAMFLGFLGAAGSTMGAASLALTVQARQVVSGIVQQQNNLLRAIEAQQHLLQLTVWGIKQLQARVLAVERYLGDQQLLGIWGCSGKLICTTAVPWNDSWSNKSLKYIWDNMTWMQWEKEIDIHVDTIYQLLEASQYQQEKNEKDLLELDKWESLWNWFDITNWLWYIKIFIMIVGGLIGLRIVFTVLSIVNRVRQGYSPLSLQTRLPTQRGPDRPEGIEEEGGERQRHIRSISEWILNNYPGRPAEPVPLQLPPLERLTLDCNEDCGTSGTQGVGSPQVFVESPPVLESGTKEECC

In general, IC50 refers to the concentration needed to halve the response being measured. As for `COc1cccc(-c2coc3c(C)c4oc(=O)c(CCC(=O)O)c(C)c4cc23)c1`, the IC50 is 22.7 µM (active).
For the compound `COc1cc(NS(=O)(=O)c2ccc(Nc3nc(-c4ccccc4)cs3)cc2)nc(OC)n1`, the IC50 is 20.4 µM (active).

(Values after ChEMBL document CHEMBL1201862, “PubChem BioAssay data set” (2004).)
